In assay [1] the target is Smo receptor (Homo sapiens, UniProt Q99835). Kind of assay: competitive binding assay displacing fluorescently-labeled Bodipy-Cyclopamine. To be noted: displacement of Bodipy-Cyclopamine; assay described in WO2009074300; read-out: Ki, binding affinity with the Smo receptor.
Assay [2] has as its system Hh pathway. Kind of assay: alkaline phosphatase-based assay of Hh pathway inactivation. It is filed as cell-based. To be noted: alkaline phosphatase-based assay described in WO2009074300. On the procedure: The level of inactivation of the Hh pathway resulting from this binding was determined using the alkaline phosphatase-based assay described in WO2009074300, resulting in an IC50 value below 30 nM.

Sequence of Smo receptor (Q99835 28-787): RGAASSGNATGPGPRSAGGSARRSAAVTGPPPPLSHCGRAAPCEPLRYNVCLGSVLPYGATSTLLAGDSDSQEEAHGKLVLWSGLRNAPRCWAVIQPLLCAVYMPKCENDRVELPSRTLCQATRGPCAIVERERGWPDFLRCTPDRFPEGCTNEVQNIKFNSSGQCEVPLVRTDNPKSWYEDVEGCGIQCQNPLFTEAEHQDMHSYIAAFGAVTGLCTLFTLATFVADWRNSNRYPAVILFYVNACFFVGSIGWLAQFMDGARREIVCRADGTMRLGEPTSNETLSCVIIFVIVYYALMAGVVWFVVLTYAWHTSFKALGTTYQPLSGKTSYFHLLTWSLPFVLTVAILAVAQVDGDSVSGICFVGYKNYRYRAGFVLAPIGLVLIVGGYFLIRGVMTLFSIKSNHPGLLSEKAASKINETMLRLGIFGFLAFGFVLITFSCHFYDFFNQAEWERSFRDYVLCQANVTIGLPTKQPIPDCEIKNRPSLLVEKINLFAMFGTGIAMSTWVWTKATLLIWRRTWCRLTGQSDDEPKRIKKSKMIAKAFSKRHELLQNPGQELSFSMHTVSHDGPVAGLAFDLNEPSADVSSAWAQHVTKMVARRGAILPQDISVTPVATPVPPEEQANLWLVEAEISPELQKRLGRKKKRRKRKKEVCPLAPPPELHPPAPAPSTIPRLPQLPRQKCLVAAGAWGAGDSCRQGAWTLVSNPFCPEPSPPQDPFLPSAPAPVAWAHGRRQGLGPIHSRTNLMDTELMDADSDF

For `Cc1ccc(-c2cc(N3CCC(C(=O)N4CCN(C)CC4)CC3)ccc2Cl)nc1` [Compound C, {1-[4-Chloro-3-(5-methyl-pyridin-2-yl)-phenyl]-piperidin-4-yl}-(4-methyl-piperazin-1-yl)-methanone], the Ki (as a rule, a measure of affinity in units of concentration, obtained from inhibition or displacement) in assay [1] is below 100 nM. In assay [2], the IC50 (in general, the concentration that gives 50% inhibition) is below 30 nM.

The values are drawn from patent publication US20150210669A1, “COMPOUND FOR THE TREATMENT OF TUMOURS AND TUMOUR METASTASES” (SIENA BIOTECH S.P.A., priority 2010, published 2015).
